Reference: paper PMC2771899, “Augmentation of Reverse Transcription by Integrase through an Interaction with Host Factor, SIP1/Gemin2 Is Critical for HIV-1 Infection” (PLoS ONE, 2009)
Where “and” joins values, the source holds several entries; their conditions need not be identical. Equal entries are not always repeated. Entries after “also recorded” stand apart in the source; their conditions may differ. Peptide text beside a SMILES is read from it. * marks the point of attachment. Cbz = O=C(OCc1ccccc1)*

How the values were obtained:
recombinant SIP1 (rSIP1) [1] = assay: In vitro binding assay, nickel-column pull-down; settings: 10 µg rSIP1 with 10 µg His-IN, 2 h, 4°C, nickel agarose, anti-SIP1 Western blot
IN-V5 = assay: Expression level of IN-V5 in 293T cells by Western blotting
HIV-1 RT (GST-RTp66) = assay: In vitro RT assay, stimulation by IN and SIP1; format: biochemical
Method: (§1) Figure 4 Augmentation of reverse transcription by HIV-1 IN and SIP1 in vitro. (A, B) The in vitro RT assay was carried out with 35 fmoles of HIV-1 RT (GST-RTp66) in the absence or presence of different amounts of full-length rIN (WT-IN). The truncated form of IN (IN1–70) that lack SIP1 binding domains was also tested in apparel as a control. The amount of HIV-1 cDNA was measured by real-time PCR using the HIV-1 R/U5 (A) or R/gag (B) primer pair. Significant augmentation (p<0.05) by WT-IN in the levels of HIV-1 cDNA compared with the level without IN (0 fmole) was indicated by asterisks. (C) The in vitro RT assay was carried out as described in (A) in either the absence or presence of […] of WT-IN, together with different amounts of rSIP1. (D) The in vitro RT assay was carried out with 3.5 fmoles of WT-IN (black bar) or IN1–70 (slash bar), in either the absence (−) or presence (+) of 50 fmoles of rSIP1. (E) The oligo(dT) cellulose resin was incubated with in vitro transcribed HIV-1 RNA for 1 h. After incubation, 10 µg of GST-RT in either the absence or presence of His-IN or rSIP1 was added and incubated for 2 h. After four washes with the IN storage buffer, precipitates were analyzed by immunoblot analysis using an anti-GST antibody.
For preparation of the viral RNA template for in vitro transcription, the DNA sequences corresponding to HIV-1 lentiviral genomic RNA (pCS-CDF-CG-PRE) were subcloned into pGEM-T vector (pGEM-CS-CDF). Then, the annealed oligonucleotides of TCGA(A)30G and TCGA(T)30C were inserted into the pGEM-CS-CDF vector at the Sal-I site for addition of the poly(A) tail (the pGEM-CS-CDF-PolyA). Synthesized HIV RNA with the poly(A) 30 tail were produced by in vitro transcription using RiboMAX™ Large Scale RNA Production System-T7 (Promega) with Ribo m^7 G Cap analog (Promega) to mimic the capped structure of mRNA. Transcription products of HIV-1 RNA (4.9 kb) were purified with spin columns MicroSpin™ G-25 Columns (American Biosciences), followed by gel-filtration using NAP-5 columns, (American Biosciences) and were used in the in vitro RT assay. The reverse transcription reactions were carried out in a final volume of 20 µl RT reaction buffer consisting of 50 mM Tris-HCl (pH 8.3), 75 mM KCl, 3 mM MgCl2, 10 mM DTT, 1 mM dNTPs, 0.04∼0.4 fmoles of HIV-1 RNA templates and 0.4∼4 fmoles of RNA primer, 3.5∼35 fmol HIV-1 RT (GST-RTp66). The reaction was carried out at 42°C for 30 min in either the absence or presence of different amount of His-IN and recombinant SIP1. The amount of the cDNA product was measured by real-time PCR using primers for the R/U5 or R/gag region.
Supplementary file pone.0007825.s004.pdf: Figure S4 Stoichiometry and order of IN and SIP1 for their stimulatory effect of cDNA synthesis. (A) The in vitro RT assay was carried out in the absence or presence of different amount of the His-IN (0.2 or 1 pmol) or recombinant SIP1 (0.2 or 1 pmol) as described in Figure 4. The amount of cDNA product was measured by real-time PCR using primers for HIV-1 R/U5 region. (B) The in vitro RT assay was carried out with 5 pmoles of His-IN in the absence or presence of different amount SIP1 (1 or 5 pmol). (C) The in vitro RT assay was carried out in the absence or presence of the His-IN and recombinant SIP1 with [α32P]dCTP and subjected to SDS-PAGE analysis in denatured condition. (D) In vitro RT assay was performed as described above, except that rIN with rRT and rSIP1 were pre-incubated on ice in different combinations and orders (inlet Table). Then, reaction was initiated by adding mixture containing the template RNA/PBS-primer and dNTPs. (0.10 MB PDF) Click here for additional data file.

rSIP1 = assay: Dot-blot binding of peptide to SIP1; settings: 40 or 400 nmol peptide on nitrocellulose, rSIP1 (5 µg), anti-SIP1 antibody
[2] = target: T1, IN-SIP1 mediated RT activity (Homo sapiens, UniProt O14893); assay: In vitro RT assay, inhibition of IN-SIP1 mediated RT activity by peptide; format: biochemical, HIV-1; settings: 35 fmol RT, 3.5 fmol His-IN, 50 fmol rSIP1; for Effect on IN-SIP1 mediated RT activity: cDNA relative to control
T1 construct: the SIP1 gene was amplified from pTRE-SIP1 (kindly provided by Dr. G. Dreyfuss) by PCR and cloned into BamHI and EcoRI sites of pGEX-6P-2; GST (N, cleaved yes); made in house; host or cells: E. coli BL21 (GST-SIP1), E. coli M15 (His-IN)
T1 sequence (O14893 1-280): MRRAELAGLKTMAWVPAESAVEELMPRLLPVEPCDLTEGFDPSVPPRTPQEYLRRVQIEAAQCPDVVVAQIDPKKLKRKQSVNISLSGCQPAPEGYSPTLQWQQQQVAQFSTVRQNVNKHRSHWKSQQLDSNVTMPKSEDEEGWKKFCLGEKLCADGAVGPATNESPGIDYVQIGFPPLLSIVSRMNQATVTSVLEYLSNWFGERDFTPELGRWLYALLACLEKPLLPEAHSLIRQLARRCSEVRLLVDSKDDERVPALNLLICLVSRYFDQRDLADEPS

[3] = test system: IN-SIP1 interaction (His-IN, rSIP1); assay: Dot-blot inhibition of IN-SIP1 interaction by peptide; format: binding, HIV-1
[4] = test system: HIVNL43-luc/VSV-G pseudotypes; format: cell-based, HIV-1
RT on viral RNA = assay: RT assembly on viral RNA; format: biochemical; settings: HIV-1 RNA on oligo(dT) cellulose, 10 µg GST-RT, 2 h, immunoblot anti-GST (Figure 4E)
Method: as §1
Next, the effects of IN and SIP1 on the assembly of RT on viral RNA was examined. […] Levels of RT on viral RNA were determined by immunoblot assay. […]

RT = assay: Direct binding to RT; design: species or system HIV-1; settings: data not shown
[5] = target: full-length His-tagged HIV-1 integrase Y15A (HIV-1 (pNL4-3)); assay: not stated; data not shown; in vitro, recombinant IN-Y15A
recombinant SIP1 (rSIP1) [6] = target: recombinant SIP1 (rSIP1) (UniProt O14893)
recombinant SIP1 (rSIP1) [7] = target: recombinant SIP1 (rSIP1) (UniProt O14893); remark: listed apart in the source
[8] = target: wild type HIV-1 integrase with V5 epitope (IN-V5, WT-V5) (HIV-1 (pNL4-3)); assay: cross-linking

1-60: His-tagged IN deletion form
Binding to rSIP1 in vitro (recombinant SIP1 (rSIP1) [1]): did not bind to rSIP1

1-70: His-tagged IN deletion form
Binding to rSIP1 in vitro (recombinant SIP1 (rSIP1) [1]): did not bind to rSIP1

1-80: His-tagged IN deletion form
Binding to rSIP1 in vitro (recombinant SIP1 (rSIP1) [1]): significant binding to rSIP1

1-90: His-tagged IN deletion form
Binding to rSIP1 in vitro (recombinant SIP1 (rSIP1) [1]): significant binding to rSIP1

1-100: His-tagged IN deletion form
Binding to rSIP1 in vitro (recombinant SIP1 (rSIP1) [1]): significant binding to rSIP1

1-220: His-tagged IN deletion form
Binding to rSIP1 in vitro (recombinant SIP1 (rSIP1) [1]): significantly restored binding of IN to rSIP1

1-230: His-tagged IN deletion form
Binding to rSIP1 in vitro (recombinant SIP1 (rSIP1) [1]): significantly restored binding of IN to rSIP1

1-240: His-tagged IN deletion form
Binding to rSIP1 in vitro (recombinant SIP1 (rSIP1) [1]): significantly reduced binding to rSIP1

1-250: His-tagged IN deletion form
Binding to rSIP1 in vitro (recombinant SIP1 (rSIP1) [1]): significantly reduced binding to rSIP1

1-260: His-tagged IN deletion form
Binding to rSIP1 in vitro (recombinant SIP1 (rSIP1) [1]): significantly reduced binding to rSIP1

1-270: His-tagged IN, the 18 amino acids from the C-terminal deleted
Binding to rSIP1 in vitro (recombinant SIP1 (rSIP1) [1]): efficient interaction with rSIP1 in vitro

CC(C)C[C@@H](C=O)NC(=O)[C@H](CC(C)C)NC(=O)[C@H](CC(C)C)NC(=O)OCc1ccccc1 [MG132] (Cbz-Leu-Leu-Leu-aldehyde)
Effect of MG132 on level of WT-V5 (IN-V5; 10 µM MG-132): not changed | Effect of MG132 on expression level of IN mutants (IN-V5; 10 µM MG-132, Y15A-V5, K186Q-V5 and LL241,242AA-V5): restored the expression levels of the IN mutants | Effect of MG132 on level of IN-V5 in siSIP1-treated cells (IN-V5; siSIP1 treated): restored

IN1–70: truncated HIV-1 IN that lacks the central and C-terminal domains
Effect on level of cDNA products (R/U5) (HIV-1 RT (GST-RTp66); truncated IN, any dose, 35 fmoles RT, 42°C, 30 min, real-time PCR, P = 0.58∼0.98): no significant stimulatory effect at any dose

IN154–174: control peptide, residues of 154–174, contains a motif critical for the interaction with LEDGF/p75 (MNKELKKIIGQVRDQAEHLKT; Integrase; UniProt P04585 1301-1321, looked up, fragment) [reference compound]
Direct binding of peptide to rSIP1 (rSIP1): did not | Effect on IN-SIP1 mediated RT activity [2]: inhibitory effect was not evident

IN231–251: synthetic peptide corresponding to the residues of 231–251 of HIV-1 IN
Direct binding of peptide to rSIP1 (rSIP1): efficiently bound to rSIP1 | Peptide concentration that reduces His-WT binding to SIP1 to non-specific background levels ([3]; His-IN (10 µg) on nitrocellulose, 5 µg rSIP1): at least 50 µM | Interference with binding of full-length IN (His-WT) to SIP1 ([3]; His-IN (10 µg) on nitrocellulose, 5 µg rSIP1, peptide present): significantly interfered with the binding of the full-length IN (His-WT) to the SIP1 protein | Effect on IN-SIP1 interaction and its RT-stimulatory effects ([3]; summary statement): inhibit the IN-SIP1 interaction and its RT-stimulatory effects | IC50, inhibition of IN-SIP1 mediated RT activity ([2]; 42°C, 30 min, 20 µl, real-time PCR): ~1 nmoles per reaction | Effect on IN-SIP1 mediated RT activity [2]: significantly reduced the IN-SIP1 mediated RT activity in a dose-dependent manner | Effect on HIV-1 infectivity [4]: did not significantly reduce HIV-1 infectivity

SIP1: survival motor neuron-interacting protein 1, recombinant
Effect of SIP1 on RT activity at higher amounts of IN (HIV-1 RT (GST-RTp66); 5 pmoles His-IN, SIP1 1 or 5 pmol (Figure S4B)): not evident; also recorded: could not observed when high amount of IN protein was present | Stimulation of RT activity by SIP1 with IN1–70 (HIV-1 RT (GST-RTp66); 3.5 fmoles IN1–70, 50 fmoles rSIP1, P = 0.98): no significant | Stimulation of RT activity by SIP1 in presence of full-length IN (HIV-1 RT (GST-RTp66); 3.5 fmoles WT-IN, 50 fmoles rSIP1, P = 0.001): Significant stimulation of RT activity | Enhancement of IN-stimulated RT activity by SIP1 (HIV-1 RT (GST-RTp66); WT-IN plus different amounts of rSIP1 (Figure 4C)): further enhanced by SIP1 in a dose-dependent manner | Effect of pre-incubation order on stimulatory effect (HIV-1 RT (GST-RTp66); pre-incubation of RT and IN before SIP1, on ice (Figure S4D)): most effective stimulatory effect | Stimulation of RT activity by SIP1 alone (HIV-1 RT (GST-RTp66); without IN, P = 0.69): no significant | Level of RT on viral RNA (RT on viral RNA): enhanced RT assembly on viral RNA | Direct binding to RT (RT): cannot bind to RT directly

full-length His-tagged HIV-1 integrase Y15A (enzyme)
stoichiometry N [5]: 2

synthetic peptide IN60–80
IC50 of inhibition of the IN-SIP1 mediated RT activity in the in vitro reverse transcription assay (35 fmol RT, 3.5 fmol His-IN, 50 fmol rSIP1); the pair blocked is m2 with m15 (pmoles per reaction) (recombinant SIP1 (rSIP1) [6]): 10 | HIV-1 infectivity (luciferase activity) in PMA-stimulated THP-1 cells with 100 µM peptide, relative to control; the pair blocked is IN with SIP1 (recombinant SIP1 (rSIP1) [7]): 20 % of control and 25 % of control

synthetic peptide IN231–251
IC50 of inhibition of the IN-SIP1 mediated RT activity in the in vitro reverse transcription assay (35 fmol RT, 3.5 fmol His-IN, 50 fmol rSIP1); the pair blocked is m2 with m15 (nmoles per reaction) (recombinant SIP1 (rSIP1) [6]): 1

wild type HIV-1 integrase with V5 epitope (IN-V5, WT-V5) (enzyme)
tetramer formation relative to control siRNA treated cells (SIP1 knock-down cells) [8]: 50%
